Starred links: 1 amine or outer side, 2 acyl side, 3 side chain; linkers in the order of their positions; H or OH if unused. Positions of bridges follow the written chain, without caps; N, C: chain ends. Non-standard residues stand in square brackets, D forms with d. Residues, ends and D or L forms follow the SMILES beside them. Groups on a side chain read outwards from the residue. *: point of attachment. NMePhe(4-COOH) = CN[C@@H](Cc1ccc(C(=O)O)cc1)C(=O)O; X1 = O=C([C@H](Cc1cccc(C(=O)[*:3])c1)N[*:1])[*:2]; Nle(6-morpholino) = N[C@@H](CCCCN1CCOCC1)C(=O)O; Phe(3-COOH) = N[C@@H](Cc1cccc(C(=O)O)c1)C(=O)O; Trp(7-aza) = N[C@@H](Cc1c[nH]c2ncccc12)C(=O)O; NH(CH2CH2O)8Me = COCCOCCOCCOCCOCCOCCOCCOCCN*; NMePhe(3-Cl) = CN[C@@H](Cc1cccc(Cl)c1)C(=O)O; Piperazinyl(4-CH2COOH) = O=C(O)CN1CCN(*)CC1; 3Pal(6-NH2) = Nc1ccc(C[C@H](N)C(=O)O)cn1; X2 = COCCOCCOCCOCCOCCOCCOCCOCCNC(=O)C*; NMeY = CN[C@@H](Cc1ccc(O)cc1)C(=O)O; 4Pal = N[C@@H](Cc1ccncc1)C(=O)O; PEG4 = NCCOCCOCCOCCOCCC(=O)O; Carboxymethyl = O=C(O)C*; CO = O=C([*:1])[*:2]
The compounds below were run against T1, human transferrin receptor (hTfR) (Homo sapiens, UniProt P02786) (assay: Evaluation of molecular interaction between transferrin receptor (hTfR) and peptide using surface plasmon resonance (SPR)). Details: peptide with linker, surface plasmon resonance; read-out: SPR (KD class for binding to hTfR).
T1 construct: made in house
T1 sequence (P02786 89-760 limits assumed): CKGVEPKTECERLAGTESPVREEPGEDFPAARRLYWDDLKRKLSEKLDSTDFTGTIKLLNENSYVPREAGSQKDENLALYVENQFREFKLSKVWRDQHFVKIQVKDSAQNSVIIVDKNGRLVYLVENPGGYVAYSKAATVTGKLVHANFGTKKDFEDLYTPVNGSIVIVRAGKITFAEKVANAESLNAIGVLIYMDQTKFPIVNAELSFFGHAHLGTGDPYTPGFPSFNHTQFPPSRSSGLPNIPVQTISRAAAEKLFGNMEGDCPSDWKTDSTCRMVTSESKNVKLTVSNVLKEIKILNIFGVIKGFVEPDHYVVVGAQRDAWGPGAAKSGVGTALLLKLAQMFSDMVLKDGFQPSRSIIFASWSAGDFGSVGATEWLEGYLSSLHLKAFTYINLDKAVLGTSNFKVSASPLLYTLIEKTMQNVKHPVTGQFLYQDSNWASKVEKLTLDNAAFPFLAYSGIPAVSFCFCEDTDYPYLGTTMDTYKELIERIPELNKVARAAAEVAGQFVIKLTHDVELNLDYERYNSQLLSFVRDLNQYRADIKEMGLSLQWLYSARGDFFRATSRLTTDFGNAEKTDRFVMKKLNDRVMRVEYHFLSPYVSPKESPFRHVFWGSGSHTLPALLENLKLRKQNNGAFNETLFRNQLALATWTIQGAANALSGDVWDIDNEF
Type: binding
Summary of the method: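 Recombinant human TfR dimer (0.5 μM) was captured on a Ni-charged NTA chip and amine-coupled with EDC/NHS, then ethanolamine-capped. Peptides at 5–100 nM in HEPES pH 8.0 buffer with 150 mM NaCl, 0.05% Tween 20, 0.1% BSA and 1.0% DMSO were run by single-cycle kinetics; KD came from least-squares curve fitting.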
`CC[C@H](C)[C@@H]1NC(=O)[C@H](Cc2ccc(OC)cc2)NC(=O)[C@H](Cc2ccc(O)cc2)NC(=O)[C@H](CC(N)=O)NC(=O)[C@H](Cc2c[nH]c3ncccc23)NC(=O)[C@H](C(C)C)NC(=O)[C@H](Cc2cccc(Cl)c2)N(C)C(=O)[C@H](C(C)C)NC(=O)[C@H](C)NC(=O)CSC[C@@H](C(=O)NCCOCCOCCOCCOCCC(N)=O)NC(=O)[C@H](Cc2ccc(C(=O)NCCOCCOCCOCCOCCOCCOCCOCCOC)cc2)N(C)C(=O)[C@H](Cc2cccc(C(=O)NCCOCCOCCOCCOCCOCCOCCOCCOC)c2)NC(=O)[C@H](CCC(N)=O)NC(=O)[C@H](CCC(N)=O)NC(=O)[C@H]([C@@H](C)CC)NC1=O` [compound 228] ({CH2CO}-AV[NMePhe(3-Cl)]V[Trp(7-aza)]NYY(Me)IIQQ[X1](NH(CH2CH2O)8Me)[NMePhe(4-COOH)](NH(CH2CH2O)8Me)C[PEG4]-NH2; thioether N-15) was tested, and the Kd was 1 to 100 nM. For `CC[C@H](C)[C@@H]1NC(=O)[C@H](Cc2ccc(OCC(=O)NCCOCCOCCOCCOCCOCCOCCOCCOC)cc2)NC(=O)[C@H](Cc2ccc(O)cc2)NC(=O)[C@H](CC(N)=O)NC(=O)[C@H](Cc2c[nH]c3ncccc23)NC(=O)[C@H](C(C)C)NC(=O)[C@H](Cc2cccc(Cl)c2)N(C)C(=O)[C@H](C(C)C)NC(=O)[C@H](C)NC(=O)CSC[C@@H](C(=O)NCCOCCOCCOCCOCCC(N)=O)NC(=O)[C@H](Cc2ccc(O)cc2)N(C)C(=O)[C@H](Cc2cccc(C(=O)NCCOCCOCCOCCOCCOCCOCCOCCOC)c2)NC(=O)[C@H](CCC(N)=O)NC(=O)[C@H](CCC(N)=O)NC(=O)[C@H]([C@@H](C)CC)NC1=O` [compound 229] ({CH2CO}-AV[NMePhe(3-Cl)]V[Trp(7-aza)]NYY(X2)IIQQ[X1](NH(CH2CH2O)8Me)[NMeY]C[PEG4]-NH2; thioether N-15), the Kd was 1 to 100 nM. `CC[C@H](C)[C@@H]1NC(=O)[C@H](Cc2ccc(OCC(=O)O)cc2)NC(=O)[C@H](Cc2ccc(O)cc2)NC(=O)[C@H](CC(N)=O)NC(=O)[C@H](Cc2c[nH]c3ncccc23)NC(=O)[C@H](C(C)C)NC(=O)[C@H](Cc2cccc(Cl)c2)N(C)C(=O)[C@H](C(C)C)NC(=O)[C@H](C)NC(=O)CSC[C@@H](C(=O)NCCOCCOCCOCCOCCC(N)=O)NC(=O)[C@H](Cc2ccc(O)cc2)N(C)C(=O)[C@H](Cc2cccc(C(=O)O)c2)NC(=O)[C@H](CCCNC(=N)N)NC(=O)[C@H](CCC(=O)NCCOCCOCCOCCOCCOCCOCCOCCOC)NC(=O)[C@H]([C@@H](C)CC)NC1=O` [compound 230] gave a Kd of 1 to 100 nM. Compound `CC[C@H](C)[C@@H]1NC(=O)[C@H](Cc2ccc(OCC(=O)O)cc2)NC(=O)[C@H](Cc2ccc(O)cc2)NC(=O)[C@H](CC(N)=O)NC(=O)[C@H](Cc2cn(CC(=O)O)c3ccccc23)NC(=O)[C@H](C(C)C)NC(=O)[C@H](Cc2cccc(Cl)c2)N(C)C(=O)[C@H](C(C)C)NC(=O)[C@H](C)NC(=O)CSC[C@@H](C(=O)NCCOCCOCCOCCOCCC(N)=O)NC(=O)[C@H](Cc2ccc(O)cc2)N(C)C(=O)[C@H](Cc2ccncc2)NC(=O)[C@H](CCCNC(=N)N)NC(=O)[C@H](CCC(=O)NCCOCCOCCOCCOCCOCCOCCOCCOC)NC(=O)[C@H]([C@@H](C)CC)NC1=O` [compound 231] has a Kd of 1 to 100 nM. Compound `CC[C@H](C)[C@@H]1NC(=O)[C@H](Cc2ccc(OCC(=O)O)cc2)NC(=O)[C@H](Cc2ccc(N)nc2)NC(=O)[C@H](CC(N)=O)NC(=O)[C@H](Cc2c[nH]c3ncccc23)NC(=O)[C@H](C(C)C)NC(=O)[C@H](Cc2cccc(Cl)c2)N(C)C(=O)[C@H](C(C)C)NC(=O)[C@H](C)NC(=O)CSC[C@@H](C(=O)NCCOCCOCCOCCOCCC(N)=O)NC(=O)[C@H](Cc2ccc(O)cc2)N(C)C(=O)[C@H](CCC(=O)NCCOCCOCCOCCOCCOCCOCCOCCOC)NC(=O)[C@H](CCCNC(=N)N)NC(=O)[C@H](CCC(=O)NCCOCCOCCOCCOCCOCCOCCOCCOC)NC(=O)[C@H]([C@@H](C)CC)NC1=O` [compound 232] ({CH2CO}-AV[NMePhe(3-Cl)]V[Trp(7-aza)]N[3Pal(6-NH2)]Y(Carboxymethyl)IIE(NH(CH2CH2O)8Me)RE(NH(CH2CH2O)8Me)[NMeY]C[PEG4]-NH2; thioether N-15) has a Kd of 100 to 1000 nM. Compound `CC[C@H](C)[C@@H]1NC(=O)[C@H](Cc2ccc(OCC(=O)O)cc2)NC(=O)[C@H](Cc2ccc(N)nc2)NC(=O)[C@H](CC(N)=O)NC(=O)[C@H](Cc2c[nH]c3ncccc23)NC(=O)[C@H](C(C)C)NC(=O)[C@H](Cc2cccc(Cl)c2)N(C)C(=O)[C@H](C(C)C)NC(=O)[C@H](C)NC(=O)CSC[C@@H](C(=O)NCCOCCOCCOCCOCCC(N)=O)NC(=O)[C@H](Cc2ccc(O)cc2)N(C)C(=O)[C@H](Cc2cccc(C(=O)O)c2)NC(=O)[C@H](CCCCN2CCOCC2)NC(=O)[C@H](CCC(=O)NCCOCCOCCOCCOCCOCCOCCOCCOC)NC(=O)[C@H]([C@@H](C)CC)NC1=O` [compound 233] ({CH2CO}-AV[NMePhe(3-Cl)]V[Trp(7-aza)]N[3Pal(6-NH2)]Y(Carboxymethyl)IIE(NH(CH2CH2O)8Me)[Nle(6-morpholino)][Phe(3-COOH)][NMeY]C[PEG4]-NH2; thioether N-15) has a Kd of 1 to 100 nM. Work on `CC[C@H](C)[C@@H]1NC(=O)[C@H](Cc2ccc(OCC(=O)O)cc2)NC(=O)[C@H](Cc2ccc(O)cc2)NC(=O)[C@H](CC(N)=O)NC(=O)[C@H](Cc2c[nH]c3ncccc23)NC(=O)[C@H](C(C)C)NC(=O)[C@H](Cc2cccc(Cl)c2)N(C)C(=O)[C@H](C(C)C)NC(=O)[C@H](C)NC(=O)CSC[C@@H](C(=O)NCCOCCOCCOCCOCCC(N)=O)NC(=O)[C@H](Cc2ccc(O)cc2)N(C)C(=O)[C@H](CCC(=O)NCCOCCOCCOCCOCCOCCOCCOCCOC)NC(=O)[C@H](CCCCN2CCOCC2)NC(=O)[C@H](CCC(=O)NCCOCCOCCOCCOCCOCCOCCOCCOC)NC(=O)[C@H]([C@@H](C)CC)NC1=O` [compound 234] ({CH2CO}-AV[NMePhe(3-Cl)]V[Trp(7-aza)]NYY(Carboxymethyl)IIE(NH(CH2CH2O)8Me)[Nle(6-morpholino)]E(NH(CH2CH2O)8Me)[NMeY]C[PEG4]-NH2; thioether N-15) yielded a Kd of 100 to 1000 nM. Work on `CC[C@H](C)[C@@H]1NC(=O)[C@H](Cc2ccc(OC)cc2)NC(=O)[C@H](Cc2ccc(O)cc2)NC(=O)[C@H](CC(N)=O)NC(=O)[C@H](Cc2c[nH]c3ncccc23)NC(=O)[C@H](C(C)C)NC(=O)[C@H](Cc2cccc(Cl)c2)N(C)C(=O)[C@H](C(C)C)NC(=O)[C@H](C)NC(=O)CSC[C@@H](C(=O)NCCOCCOCCOCCOCCC(N)=O)NC(=O)[C@H](Cc2ccc(O)cc2)N(C)C(=O)[C@H](CCC(=O)NCCOCCOCCOCCOCCOCCOCCOCCOC)NC(=O)[C@H](CCCCN2CCOCC2)NC(=O)[C@H](CCC(=O)NCCOCCOCCOCCOCCOCCOCCOCCOC)NC(=O)[C@H]([C@@H](C)CC)NC1=O` [compound 235] ({CH2CO}-AV[NMePhe(3-Cl)]V[Trp(7-aza)]NYY(Me)IIE(NH(CH2CH2O)8Me)[Nle(6-morpholino)]E(NH(CH2CH2O)8Me)[NMeY]C[PEG4]-NH2; thioether N-15) yielded a Kd of 1 to 100 nM. `CC[C@H](C)[C@@H]1NC(=O)[C@H](Cc2ccc(OC)cc2)NC(=O)[C@H](Cc2ccc(N)nc2)NC(=O)[C@H](CC(N)=O)NC(=O)[C@H](Cc2c[nH]c3ncccc23)NC(=O)[C@H](C(C)C)NC(=O)[C@H](Cc2cccc(Cl)c2)N(C)C(=O)[C@H](C(C)C)NC(=O)[C@H](C)NC(=O)CSC[C@@H](C(=O)NCCOCCOCCOCCOCCC(N)=O)NC(=O)[C@H](Cc2ccc(O)cc2)N(C)C(=O)[C@H](Cc2ccncc2)NC(=O)[C@H](CCCCN2CCOCC2)NC(=O)[C@H](CCC(=O)NCCOCCOCCOCCOCCOCCOCCOCCOC)NC(=O)[C@H]([C@@H](C)CC)NC1=O` [compound 236] ({CH2CO}-AV[NMePhe(3-Cl)]V[Trp(7-aza)]N[3Pal(6-NH2)]Y(Me)IIE(NH(CH2CH2O)8Me)[Nle(6-morpholino)][4Pal][NMeY]C[PEG4]-NH2; thioether N-15) gave a Kd of 1 to 100 nM. With `CC[C@H](C)[C@@H]1NC(=O)[C@H](Cc2ccc(OC)cc2)NC(=O)[C@H](Cc2ccc(N)nc2)NC(=O)[C@H](CC(N)=O)NC(=O)[C@H](Cc2c[nH]c3ncccc23)NC(=O)[C@H](C(C)C)NC(=O)[C@H](Cc2cccc(Cl)c2)N(C)C(=O)[C@H](C(C)C)NC(=O)[C@H](C)NC(=O)CSC[C@@H](C(=O)NCCOCCOCCOCCOCCC(N)=O)NC(=O)[C@H](Cc2ccc(O)cc2)N(C)C(=O)[C@H](Cc2ccncc2)NC(=O)[C@H](CCCCNC(=O)N2CCN(CC(=O)O)CC2)NC(=O)[C@H](CCC(=O)NCCOCCOCCOCCOCCOCCOCCOCCOC)NC(=O)[C@H]([C@@H](C)CC)NC1=O` [compound 237] ({CH2CO}-AV[NMePhe(3-Cl)]V[Trp(7-aza)]N[3Pal(6-NH2)]Y(Me)IIE(NH(CH2CH2O)8Me)K([CO-Piperazinyl(4-CH2COOH)])[4Pal][NMeY]C[PEG4]-NH2; thioether N-15) the Kd was 1 to 100 nM. With `CC[C@H](C)[C@@H]1NC(=O)[C@H](Cc2ccc(OCC(=O)O)cc2)NC(=O)[C@H](Cc2ccc(N)nc2)NC(=O)[C@H](CC(N)=O)NC(=O)[C@H](Cc2c[nH]c3ccccc23)NC(=O)[C@H](C(C)C)NC(=O)[C@H](Cc2cccc(Cl)c2)N(C)C(=O)[C@H](C(C)C)NC(=O)[C@H](C)NC(=O)CSC[C@@H](C(=O)NCCOCCOCCOCCOCCC(N)=O)NC(=O)[C@H](Cc2ccc(O)cc2)N(C)C(=O)[C@H](Cc2cccc(C(=O)O)c2)NC(=O)[C@H](CCCNC(=N)N)NC(=O)[C@H](CCC(=O)NCCOCCOCCOCCOCCOCCOCCOCCOC)NC(=O)[C@H]([C@@H](C)CC)NC1=O` [compound 238] ({CH2CO}-AV[NMePhe(3-Cl)]VWN[3Pal(6-NH2)]Y(Carboxymethyl)IIE(NH(CH2CH2O)8Me)R[Phe(3-COOH)][NMeY]C[PEG4]-NH2; thioether N-15) the Kd was 1 to 100 nM. For `CC[C@H](C)[C@@H]1NC(=O)[C@H](Cc2ccc(OCC(=O)O)cc2)NC(=O)[C@H](Cc2ccc(N)nc2)NC(=O)[C@H](CC(N)=O)NC(=O)[C@H](Cc2c[nH]c3ncccc23)NC(=O)[C@H](C(C)C)NC(=O)[C@H](Cc2cccc(Cl)c2)N(C)C(=O)[C@H](C(C)C)NC(=O)[C@H](C)NC(=O)CSC[C@@H](C(=O)NCCOCCOCCOCCOCCC(N)=O)NC(=O)[C@H](Cc2ccc(O)cc2)N(C)C(=O)[C@H](Cc2cccc(C(=O)O)c2)NC(=O)[C@H](CCCNC(=N)N)NC(=O)[C@H](CCC(=O)NCCOCCOCCOCCOCCOCCOCCOCCOC)NC(=O)[C@H]([C@@H](C)CC)NC1=O` [compound 239] ({CH2CO}-AV[NMePhe(3-Cl)]V[Trp(7-aza)]N[3Pal(6-NH2)]Y(Carboxymethyl)IIE(NH(CH2CH2O)8Me)R[Phe(3-COOH)][NMeY]C[PEG4]-NH2; thioether N-15), the Kd was 1 to 100 nM.

Reference: patent publication US20260116920A1, “HUMAN TRANSFERRIN RECEPTOR BINDING PEPTIDE” (PEPTIDREAM INC., priority 2021, published 2026)
